System: HepG2 cells
Assay: Multiplex rtPCR gene expression time course (15-plex) in treated cells
Type: cell-based
Conditions: 5×10^4 HepG2 cells, 25 μM, timepoints T=0, 2, 4, 8, 24, 48, 120 hours, triplicate, FIG. 9
Method: Cells were treated in triplicate and timepoints were collected at T=0, 2, 4, 8, 24, 48, and 120 hours. RNA was isolated using Qiagen's RNeasy kit for 96 well plates and the concentration was monitored using a Ribogreen Assay (Molecular Probes). The concentration of RNA from each sample was normalized to 5 ng/μl. rtPCR was carried out using 25 ng of RNA from each sample and the products were analyzed using an ABI 3100 Genetic Analyzer. Gene expression is expressed as a ratio to that of GAPDH. The multiplex included the following list of genes.
CV's for all genes and data points within the experiment ranged from a few percent to 20%.

Structure (SMILES): CC[C@H]1CN2CCc3cc(OC)c(OC)cc3[C@@H]2C[C@@H]1C[C@H]1NCCc2cc(OC)c(OC)cc21 [emitine]
- GRO1 gene expression, ratio to that of GAPDH: clear trends of induction
- Il-8 gene expression, ratio to that of GAPDH: clear trends of induction

Source: patent US7897750B2, “Strategies for gene expression analysis” (Althea Technologies, Inc., priority 2002, dated 2011)
